For this assay, the target named is T1, GPR40 of human origin (Homo sapiens, UniProt O14842).
T1 construct: expressed in transfected cells
The assay can be described thus: Agonist action on GPR40 of human origin (Ca2+ fluorescence in CHO cells). It is filed as cell-based. The conditions noted are these: CHO cell strain stably expressing GPR40 of human origin; Ca2+ concentration fluctuation, fluorescent calcium indicator. As for the experimental part: A CHO cell strain stably expressing GPR40 of human origin was used to determine the agonist action of a subject compound. This cell strain was seeded in a clear bottom 96 well plate at 4×10^4 cells/100 μL/well. The cell strain was cultured in a CO2 incubator overnight using a Ham's F-12 medium containing a 10% fetal bovine serum, 100 U/mL penicillin, 0.1 mg/mL streptomycin, and 400 μg/mL Geneticin. Calcium 4 Assay Kit (Molecular Devices) was used as a fluorescent calcium indicator. One mL of 77 mg/mL probenecid (Invitrogen) was added to 100 mL of a calcium indicator solution to prepare a solution (loading solution) mixed with a 20 mM HEPES-containing Hanks' balanced salt solution (HBSS) in equal proportions. 200 μL of the loading solution was added to the cells from which the culture solution was removed, and the cells were cultured in a CO2 incubator for 1 hour. The subject compound was diluted with a 20 mM HEPES-containing HBSS and was added to the cells by 50 μL, and the fluctuation of the Ca^2+ concentration was measured by an intracellular ion analyzer. The EC50 value of the subject compound was calculated using the dose-response curve of fluorescence intensity variation.

SMILES strings stand for the structures.

T1 sequence (O14842 whole entry): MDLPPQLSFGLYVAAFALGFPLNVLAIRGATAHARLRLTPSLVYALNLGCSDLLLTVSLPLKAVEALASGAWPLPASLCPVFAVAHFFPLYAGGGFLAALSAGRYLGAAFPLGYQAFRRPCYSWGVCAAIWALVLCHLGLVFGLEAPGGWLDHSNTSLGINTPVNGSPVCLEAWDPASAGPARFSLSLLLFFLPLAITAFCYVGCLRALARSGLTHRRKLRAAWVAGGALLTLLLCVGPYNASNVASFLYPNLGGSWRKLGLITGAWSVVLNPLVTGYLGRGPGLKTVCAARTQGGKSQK

For the compound `[O-][s+]1nc(O)cc1-c1ccc(OCc2cccc(N3CCC(F)(F)CC3)c2)cc1` (single isomer, unassigned) [Example 93, 5-[4-[[3-(4,4-difluoropiperidin-1-yl)phenyl]methoxy]phenyl]isothiazol-3-ol 1-oxide(A)], the EC50 (in general, the concentration at which the effect is half-maximal) was in the range of 300 to 3000 nM.

The values are drawn from US8476287B2, “3-hydroxy-5-arylisothiazole derivative” (Mochida Pharmaceutical Co., Ltd., priority 2009, dated 2013).
